Reference: patent publication US5623049A (Bayer Aktiengesellschaft, priority 1993, dated 1997)

Legend:
Protease XXI = assay: Stability towards proteases: Protease XXI; format: in vitro ADME; settings: 75 μg of oligomer, 5 μl of protease, 37° C., 3 hours; PAGE, UV shadowing, silver staining; note: key: '+' denotes stability; no enzymic degradation
Procedure: (§1) Subsequently, the gel was analysed by UV shadowing.

Endoprotease LYS--C = Endoprotease LYS--C (Lysobacter enzymogenes, UniProt Q7M135); assay: Stability towards proteases: Endoprotease LYS--C; format: in vitro ADME; settings: 75 μg of oligomer, 5 μl of protease, 37° C., 3 hours; PAGE, UV shadowing, silver staining; note: key: '+' denotes stability; no enzymic degradation
Sequence of Endoprotease LYS--C (Q7M135 whole entry): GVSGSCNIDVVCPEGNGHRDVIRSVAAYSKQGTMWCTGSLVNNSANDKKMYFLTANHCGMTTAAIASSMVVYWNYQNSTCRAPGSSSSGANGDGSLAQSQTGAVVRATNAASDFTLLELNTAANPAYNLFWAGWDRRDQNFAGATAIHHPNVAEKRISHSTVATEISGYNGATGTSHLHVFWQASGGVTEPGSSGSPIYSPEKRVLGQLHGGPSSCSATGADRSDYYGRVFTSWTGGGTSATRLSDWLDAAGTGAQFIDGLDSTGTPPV
Procedure: as §1

Protease IX = assay: Stability towards proteases: Protease IX; format: in vitro ADME; settings: 75 μg of oligomer, 5 μl of protease, 37° C., 3 hours; PAGE, UV shadowing, silver staining; note: key: '+' denotes stability; no enzymic degradation
Procedure: as §1

[1] = Stability towards proteases: extracts of T-lymphocyte cells; format: in vitro ADME; settings: 75 μg of oligomer, 5 μl of extract, protease buffer, 37° C., 3 hours; note: key: '+' denotes stability; no enzymic degradation
Procedure: (§2) Cell extracts from T lymphocytes and blood were also employed for the stability investigations in addition to the purified, defined proteases. For this purpose, 50 ml of cell suspension were centrifuged down at 2000 rpm, taken up in 500 μl of Tris/HCl buffer, pH 7.5; 40 mM CaCl2, and lysed with 5 μl of 20% SDS. Following dialysis against 0.1 M Tris/HCl, pH 7.5; 40 mM CaCl2, and a change of buffer after 4 hours, 5 μl were employed directly in the test. Blood was lysed directly with doubly distilled H2 O and 5 μl were then employed in the test. Bovine serine albumin (BSA) and lysozyme were used as positive controls for digestion by the proteases.
as §1

[2] = Stability towards proteases: blood extract; format: in vitro ADME; settings: 75 μg of oligomer, 5 μl of lysed blood, protease buffer, 37° C., 3 hours; note: key: '+' denotes stability; no enzymic degradation
Procedure: as §2, §1

[3] = Stability towards nucleases: blood; format: in vitro ADME; settings: 75 μg of oligomer, lysed blood, nuclease buffer, 37° C., 3 hours; note: key: '+' denotes stability; no enzymic degradation
Procedure: (§3) Cell extracts from T-lymphocytes and blood were also employed for the stability investigations in addition to the purified, defined nucleases. For this purpose, 50 ml of cell suspension were centrifuged down at 2000 rpm, taken up in 500 μl of Tris/HCl buffer, pH 7.5; 40 mM CaCl2, and lysed with 5 μl of 20% SDS. Following dialysis against 0.1 M Tris/HCl, pH 7.5; 40 mM CaCl2, and a change of buffer after 4 hours, 5 μl were employed directly in the test. Blood was employed directly following lysis with doubly distilled H2 O. A 25mer oligonucleotide diester was employed as the positive control for digestion by the nucleases.
(§4) Subsequently, the gel was analysed by UV shadowing. […] The oligomers are stable towards the nucleases and cell extracts which were tested.

S1 nuclease = target: T1, S1 nuclease (Aspergillus oryzae, UniProt P24021); assay: Stability towards nucleases: S1 nuclease; format: in vitro ADME; settings: 75 μg of oligomer, 5 μl of nuclease (40 units), 37° C., 3 hours; PAGE, UV shadowing; note: key: '+' denotes stability; no enzymic degradation
T1 sequence (P24021 21-287): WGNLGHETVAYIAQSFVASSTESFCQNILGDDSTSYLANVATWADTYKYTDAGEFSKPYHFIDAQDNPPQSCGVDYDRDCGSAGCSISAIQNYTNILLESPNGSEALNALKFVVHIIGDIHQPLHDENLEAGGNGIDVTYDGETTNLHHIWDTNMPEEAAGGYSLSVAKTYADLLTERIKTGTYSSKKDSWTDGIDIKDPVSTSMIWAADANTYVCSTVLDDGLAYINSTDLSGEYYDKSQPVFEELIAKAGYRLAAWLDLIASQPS
Procedure: as §4

[4] = Stability towards nucleases: T-lymphocyte extract; format: in vitro ADME; settings: 75 μg of oligomer, nuclease buffer, 37° C., 3 hours; note: key: '+' denotes stability; no enzymic degradation
Procedure: as §3, §4

Pronase E = assay: Stability towards proteases: Pronase E; format: in vitro ADME; settings: 75 μg of oligomer, 5 μl of protease, 37° C., 3 hours; PAGE, UV shadowing, silver staining; note: key: '+' denotes stability; no enzymic degradation
Procedure: as §1

[5] = Stability of nucleic acid-binding oligomers towards proteases and nucleases (overall statements); format: in vitro ADME; settings: 37° C., 3 hours
Procedure: For this purpose, the nucleic acid-binding oligomers were treated-with non-specific and specific proteases, such as, for example, pronase E, proteinase K, trypsin, endoprotease Lys.C, V8 protease, protease IX and protease XXI, nucleases, such as, for example, S1 nuclease and Ba131 nuclease, phosphodiesterase, and cell extracts and organ extracts and blood serum and blood extracts which contain various nucleases and proteases. The oligomers were examined for degradation by polyacrylamide gel electrophoresis and UV shadowing on TLC plates containing UV indicator and by silver-staining the polyacrylamide gels.
as §2, with “the proteases. […]” for “the proteases.”

Proteinase K = Proteinase K (Parengyodontium album, UniProt P06873); assay: Stability towards proteases: Proteinase K; format: in vitro ADME; settings: 75 μg of oligomer, 5 μl of protease, 37° C., 3 hours; PAGE, UV shadowing, silver staining; note: key: '+' denotes stability; no enzymic degradation
Sequence of Proteinase K (P06873 106-384): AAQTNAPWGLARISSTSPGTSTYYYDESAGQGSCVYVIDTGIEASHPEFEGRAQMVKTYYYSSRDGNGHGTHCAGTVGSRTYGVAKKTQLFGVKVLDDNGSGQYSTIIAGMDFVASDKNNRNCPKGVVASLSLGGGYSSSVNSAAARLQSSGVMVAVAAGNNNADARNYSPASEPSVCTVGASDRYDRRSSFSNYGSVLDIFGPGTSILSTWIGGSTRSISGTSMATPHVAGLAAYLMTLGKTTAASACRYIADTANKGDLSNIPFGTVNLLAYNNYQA
Procedure: as §1

Bal31 nuclease = assay: Stability towards nucleases: Bal31 nuclease; format: in vitro ADME; settings: 75 μg of oligomer, 5 μl of nuclease (40 units), 37° C., 3 hours; PAGE, UV shadowing; note: key: '+' denotes stability; no enzymic degradation
Procedure: as §4

Trypsin = assay: Stability towards proteases: Trypsin; format: in vitro ADME; settings: 75 μg of oligomer, 5 μl of protease, 37° C., 3 hours; PAGE, UV shadowing, silver staining; note: key: '+' denotes stability; no enzymic degradation
Procedure: as §1

[6] = system: double-stranded plasmid DNA containing two poly-adenine sequence regions; assay: Strand displacement in double-stranded plasmid DNA; settings: S1 nuclease digestion at high salt concentrations
Procedure: Double-stranded, circular plasmid DNA, which is of 4880 base pairs in length and which contains two poly-adenine sequence regions having at least nine consecutive adenine nucleotides, which sequence regions are at a distance apart of 1150 base pairs, is used in the tests described here.
Subsequently, 4 μl of buffer (250 mM Na acetate, 1 M NaCl, 2.5% glycerol, 5 mM ZnCl2, pH 4.4) were added to all the samples while 1 μl of S1 nuclease from Aspergillus oryzae (from Boehringer Mannheim), having an activity of 10 U/μl, was added to each of samples 2 to 6. After having been incubated at 30° C. for 15 minutes, the samples were placed on ice, 1 μl of 0.5 M EDTA and 3 μl of loading buffer (50% glycerol, 0.25% bromophenol blue in 40 mM Tris/HCl, 20 mM sodium acetate, 1 mM EDTA, pH=7.2) were added, and, without delay, the samples were fractionated electrophoretically on 1.2% agarose gels and, after staining with ethidium bromides, the sizes of the resulting plasmid fragments on the gel were determined by comparison with a molecular weight standard (1-kb ladder, from Gibco-BRL, D-7514 Eggenstein) on a transilluminator using 254 nm UV light.

Substance: H--(III T)12 --Lys--OH [H-(IIIT)12 -Lys--OH]
- Stability towards Protease XXI (Protease XXI): +
- Stability towards Endoprotease LYS--C (Endoprotease LYS--C): +
- Stability towards Protease IX (Protease IX): +
- Stability towards extracts of T-lymphocyte cells (HUT, U 937), protease test [1]: +
- Stability towards extract of blood, protease test [2]: +
- Stability towards blood, nuclease test [3]: +
- Stability towards S1 nuclease (S1 nuclease): +
- Stability towards T-lymphocyte extract, nuclease test [4]: +
- Stability towards Pronase E (Pronase E): +
- Stability towards the proteases and cell extracts which were tested [5]: stable
- Stability towards Proteinase K (Proteinase K): +
- Stability towards Bal31 nuclease (Bal31 nuclease): +
- Stability towards Trypsin (Trypsin): +
- Binding to double-stranded DNA (strand displacement), result in words [6]: concentration-dependent and sequence-selective binding

Substance: H--(III T)8 --Ala--OH [H-(IIIT)8 -Ala--OH]
- Stability towards Protease XXI (Protease XXI): +
- Stability towards Endoprotease LYS--C (Endoprotease LYS--C): +
- Stability towards Protease IX (Protease IX): +
- Stability towards extracts of T-lymphocyte cells (HUT, U 937), protease test [1]: +
- Stability towards extract of blood, protease test [2]: +
- Stability towards blood, nuclease test [3]: +
- Stability towards S1 nuclease (S1 nuclease): +
- Stability towards T-lymphocyte extract, nuclease test [4]: +
- Stability towards Pronase E (Pronase E): +
- Stability towards the proteases and cell extracts which were tested [5]: stable
- Stability towards Proteinase K (Proteinase K): +
- Stability towards Bal31 nuclease (Bal31 nuclease): +
- Stability towards Trypsin (Trypsin): +
